Data published in patent publication US9205137B2, “Maturation of gastrointestinal tract” (ANARA AB, priority 2010, dated 2015).
Marks after values point to notes of the source that are not given here.

Key:
suckling rats [1] = test: Set I: brush-border disaccharidase activity in proximal SI, Example 3; type: in vivo, Rattus norvegicus; settings: proximal part of SI, in words (FIG. 5)
Experimental: The proximal samples of the SI were de-frozen and weighted and then homogenized with 9 parts of 0.9% NaCl (9 w/v). The homogenates (50 μl diluted samples) were incubated with the appropriate disaccharide (50 μl of 0.056M sucrose, maltose and lactose) for 1 hour at 37° C. After this, the liberated glucose was determined by adding glucose oxidase reagent (Sigma Chemicals), and incubated for 30 minutes. Then samples were transferred into the 96-well plate in triplication and the absorbance was measured at 450 nm. To measure the protein contents of the homogenates, Lowry method, was used, where BSA (Bovine Serum Albumin) was used as a standard. The results are presented as specific activity units per mg of protein (u/mg).

suckling 14 d old rats = test: Exocrine pancreatic function (trypsin activity in pancreatic homogenates), Example 6; type: in vivo, rat; settings: 3 d oral gavage, in words (FIG. 10)
Excerpt: Treated groups were compared to control, *p<0.05.
The same rat model as in Experiments 3-5 was used.
The effect of microbial-derived enzymes with pancreatic activity: protease, lipase, amylase and their mixture on exocrine pancreatic secretion after 3 d of oral gavage to suckling 14 d old rats (see experiment 3-5 above). Treated groups were compared to control, *p<0.05

suckling rats [2] = test: Set II: different doses of protease, organ weights, stomach pH and body weight, Example 4; type: in vivo, Rattus norvegicus; parameters: mean body weight Bwt 1/Day 14 / mean body weight Bwt2/Day 15 / mean body weight Bwt3/Day 16 / mean body weight Bwt4/Day 17: unit not given here; settings: for Cecum / Distal SI / Liver / Pancreas / Proximal SI / SI length / Spleen / Stomach / Thymus: day 17; for pH: stomach contents
Experimental: The second study was about comparing the effect of different doses of protease (15000 USP, 7500 USP, 3750 USP and […]) on the development of the GI tract with control. In this experiment 2 litters of pups were used (n=13 and n=12). Pups were divided into five groups to fed with different doses of protease; 15000 USP (n=3), P7500 USP (n=6), P 3750 USP (n=6), P 1875 USP (n=5) and water as a control (n=5). The feeding was during 3 continuous days, once a day. 24 hours after the last feeding, on day 17, similar dissection steps and analytical procedures as mentioned for the previous experiment were followed.
All data are presented as mean±standard deviation (SD). […] Results were considered as significant when P<0.05.

Substance: Proteinase from Aspergillus melleus [Protease]
- lactase activity (suckling rats [1]): decreased
- maltase activity (suckling rats [1]): significantly increased
- sucrase activity (suckling rats [1]): significantly increased
- stimulation of the pancreatic function (suckling 14 d old rats): most efficient enzyme for stimulation of the pancreatic function
- diarrhoea (suckling rats [2]; highest dose of protease, after first dose on day 14): signs of diarrhoea
- mean body weight Bwt 1/Day 14 (suckling rats [2]; protease 15 000USP): 28.7
- mean body weight Bwt2/Day 15 (suckling rats [2]; protease 15 000USP): 27.4*
- mean body weight Bwt3/Day 16 (suckling rats [2]; protease 15 000USP): 28.2*
- mean body weight Bwt4/Day 17 (suckling rats [2]; protease 15 000USP): 30.1*
- mean body weight Bwt 1/Day 14 (suckling rats [2]; protease 1875USP): 28.2
- mean body weight Bwt2/Day 15 (suckling rats [2]; protease 1875USP): 31.7
- mean body weight Bwt3/Day 16 (suckling rats [2]; protease 1875USP): 32.9
- mean body weight Bwt4/Day 17 (suckling rats [2]; protease 1875USP): 34.8
- Cecum (suckling rats [2]; protease 1875 USP): 2.3 ± 0.2 mg/g BW
- Distal SI (suckling rats [2]; protease 1875 USP): 13.3 ± 1.4 mg/g BW
- Liver (suckling rats [2]; protease 1875 USP): 31.7 ± 1.1 mg/g BW
- Pancreas (suckling rats [2]; protease 1875 USP): 3.0 ± 0.4 mg/g BW
- Proximal SI (suckling rats [2]; protease 1875 USP): 16.4 ± 0.8 mg/g BW
- SI length (suckling rats [2]; protease 1875 USP): 1.5 ± 0.0 cm/g BW
- Spleen (suckling rats [2]; protease 1875 USP): 3.3 ± 0.4 mg/g BW
- Stomach (suckling rats [2]; protease 1875 USP): 6.1 ± 0.3 mg/g BW
- Thymus (suckling rats [2]; protease 1875 USP): 5.6 ± 0.3 mg/g BW
- mean body weight Bwt 1/Day 14 (suckling rats [2]; protease 3750USP): 28.5
- mean body weight Bwt2/Day 15 (suckling rats [2]; protease 3750USP): 30.5
- mean body weight Bwt3/Day 16 (suckling rats [2]; protease 3750USP): 32.3
- mean body weight Bwt4/Day 17 (suckling rats [2]; protease 3750USP): 33.3
- Cecum (suckling rats [2]; protease 3750 USP): 2.8 ± 0.3 mg/g BW
- Distal SI (suckling rats [2]; protease 3750 USP): 14.7 ± 1.1 mg/g BW
- Liver (suckling rats [2]; protease 3750 USP): 32.8 ± 1.7 mg/g BW
- Pancreas (suckling rats [2]; protease 3750 USP): 3.2 ± 0.3 mg/g BW
- Proximal SI (suckling rats [2]; protease 3750 USP): 17.6 ± 1.5 mg/g BW
- SI length (suckling rats [2]; protease 3750 USP): 1.5 ± 0.1 cm/g BW
- Spleen (suckling rats [2]; protease 3750 USP): 3.3 ± 0.5 mg/g BW
- Stomach (suckling rats [2]; protease 3750 USP): 6.4 ± 0.3 mg/g BW
- Thymus (suckling rats [2]; protease 3750 USP): 5.6 ± 0.8 mg/g BW
- mean body weight Bwt 1/Day 14 (suckling rats [2]; protease 7500USP): 28.9
- mean body weight Bwt2/Day 15 (suckling rats [2]; protease 7500USP): 30.6
- mean body weight Bwt3/Day 16 (suckling rats [2]; protease 7500USP): 32.2
- mean body weight Bwt4/Day 17 (suckling rats [2]; protease 7500USP): 33.6
- Cecum (suckling rats [2]; protease 7500 USP): 3.0 ± 0.2 mg/g BW
- Distal SI (suckling rats [2]; protease 7500 USP): 15.4 ± 1.7 mg/g BW
- Liver (suckling rats [2]; protease 7500 USP): 33.0 ± 1.6 mg/g BW
- Pancreas (suckling rats [2]; protease 7500 USP): 3.4 ± 0.4 mg/g BW
- Proximal SI (suckling rats [2]; protease 7500 USP): 19.3 ± 2.0 mg/g BW
- SI length (suckling rats [2]; protease 7500 USP): 1.8 ± 0.1 cm/g BW
- Spleen (suckling rats [2]; protease 7500 USP): 3.1 ± 0.1 mg/g BW
- Stomach (suckling rats [2]; protease 7500 USP): 6.3 ± 0.4 mg/g BW
- Thymus (suckling rats [2]; protease 7500 USP): 4.8 ± 0.6 mg/g BW
- Cecum (suckling rats [2]; protease 15000 USP): 4.2 ± 0.1 mg/g BW
- Distal SI (suckling rats [2]; protease 15000 USP): 18.6 ± 1.0 mg/g BW
- Liver (suckling rats [2]; protease 15000 USP): 38.5 ± 2.4 mg/g BW
- Pancreas (suckling rats [2]; protease 15000 USP): 4.8 ± 0.2 mg/g BW
- Proximal SI (suckling rats [2]; protease 15000 USP): 28.2 ± 1.7 mg/g BW
- SI length (suckling rats [2]; protease 15000 USP): 1.8 ± 0.1 cm/g BW
- Spleen (suckling rats [2]; protease 15000 USP): 3.0 ± 0.3 mg/g BW
- Stomach (suckling rats [2]; protease 15000 USP): 6.9 ± 0.7 mg/g BW
- Thymus (suckling rats [2]; protease 15000 USP): 3.0 ± 0.2 mg/g BW
- pH (suckling rats [2]; protease 1875 USP): 4.1 ± 0.2
- pH (suckling rats [2]; protease 3750 USP): 4.1 ± 0.4
- pH (suckling rats [2]; protease 7500 USP): 3.9 ± 0.7
- pH (suckling rats [2]; protease 15000 USP): 3.4 ± 0.8
